# Measurements: patent publication US20220031849A1, “NANOPARTICLE ENCAPSULATION TO TARGET G PROTEIN-COUPLED RECEPTORS IN ENDOSOMES” (TAKEDA PHARMACEUTICAL COMPANY LIMITED, priority 2018, published 2022)
# Ends that are not written are not given here.
# Experiments:
# [1] = test system: HEK-293 cells; assay: Uptake and disassembly of Coumarin 153 loaded nanoparticles; assay type: cell-based; settings: 30 min pre-incubation with inhibitor
# Description: The uptake and disassembly of DIPMA nanoparticles loaded with Coumarin153 (DIPMA-CO), which emits in an aqueous environment but not in the hydrophobic core, were examined by high content imaging (confocal microscopy).
# Uptake and disassembly of nanoparticles in HEK-293 cells. Coumarin 153 is a solvatochromic dye that fluoresces only in polar solvents, allowing detection of the release of Coumarin loaded in the core of nanoparticles observed as the appearance of Coumarin fluorescence in intact cells. nanoparticles were self-assembled using 0.5 mg of Coumarin 153 per mg of DIPMA polymer (DIPMA-CO). HEK-293 cells were pre-incubated for 30 min with vehicle (Hank's Balanced Salt Solution, HBSS), dynamin inhibitor (Dyngo4a, Dy4, 30 μM), clathrin inhibitor (Pitstop, PS2, 30 μM), vacuolar H^+ATPase inhibitor (Bafilomycin A1, BFA, 1 μM) or NH4Cl (20 mM) to alkalinize endosomes. Images were obtained with a Leica SP8 confocal microscope using HCX PL APO 63× (NA […]) oil objective. Images were taken every 10 see for 30 min, where the first 5 readings correspond to baseline images prior the addition of DIPMA-CO nanoparticles (20 μg/mL). All images were analyzed using Fiji.
# [2] = test system: SNS-evoked mechanical hyperalgesia in rats; assay: Sural nerve spared (SNS) mechanical hyperalgesia, Randall-Selitto; assay type: in vivo
# [3] = test system: CFA-evoked mechanical hyperalgesia in mice; assay: Complete Freund's adjuvant-evoked mechanical hyperalgesia, von Frey filaments; assay type: in vivo; settings: for Inhibition of CFA hyperalgesia at 1.5 h: 5 μl i.t., 48 h after CFA
# [4] = test system: CFA-induced mechanical hyperalgesia; settings: Proc. Natl. Acad. Sci. USA. 114(46):12309-12314; cited from earlier work
# [5] = test system: chronic pain model in rats; assay: Chronic pain model by ligation of the sciatic nerve, Randall-Selitto (Example 10); assay type: in vivo; settings: 300 nM aprepitant, i.t. 10 μL
# Description: The chronic pain model was induced by ligation of the sciatic nerve, allowing sensitisation to pain (allodynia, hyperalgesia) to develop for 10 days. Sensitisation was confirmed measuring baseline (pre-surgery) and post-surgery paw withdrawal using a Randall-Selitto electronic algesimeter (Eva Santos-Nogueira, et al. J Neurotrauma. 2012, 29(5): 898-904). […] As is evident, aprepitant-loaded nanoparticles provide greater analgesia and longer lasting effects.
# [6] = test system: C-fiber reflex and wind-up in SNS rats; assay: C-fiber-evoked nociceptive reflex and wind-up in SNS rats; assay type: in vivo; settings: 10 μl, 1 μM intrathecal
# [7] = test system: capsaicin-evoked mechanical allodynia in mice; assay: Capsaicin-evoked mechanical allodynia, von Frey filaments; assay type: in vivo; settings: for Time at which the effect is lost / not detected: i.t.
# Procedure: However, the same behaviour on the decay of the effect was observed.
# AP, nanoparticles or vehicle (5 μl) was administered by intrathecal injection to mice 30 min before intraplantar injection to the hind paw of capsaicin, which activates TRPV1 to cause acute allodynia and neurogenic inflammation. Withdrawal responses to stimulation of the plantar surface of the injected hindpaw with calibrated von Frey filaments (VFF) were measured before and after capsaicin. In mice receiving vehicle or DIPMA-empty nanoparticles, capsaicin decreased the VFF threshold from 0.5-4 h, consistent with mechanical allodynia, which returned to baseline after 24 h (FIG. 18B).
# Drug administration. Mice. […] Rats. […] Treatments were administered 10 days after sural nerve transection.
# Acute pain. Capsaicin (CAP, 5 μg) or vehicle (0.9% NaCl) was administered by subcutaneous intraplantar (i.pl.) injection (10 μL) into the left hindpaw of sedated mice (2% isoflurane) 30 min after i.t. injection of drugs.
# Mechanical allodynia and hyperalgesia. Mechanical nociception was assessed by measuring withdrawal thresholds to stimulation of the plantar surfaces of the ipsilateral and contralateral hindpaws with calibrated von Frey filaments (VFF). Prior to experiments, mice were acclimatized to the experimental apparatus and environment for 2 h on 2 successive days. VFF withdrawal thresholds were measured in triplicate to establish a baseline for each mouse. For the CAP model, VFF withdrawal thresholds were measured at 30 min intervals for the first 2 h after i.t. drug administration, then at 60 min intervals for the next 2 h, and finally after 24 h. For the CFA model, VFF withdrawal thresholds were measured every 30 min for the first 3 h after i.t. drug administration, then at 60 min intervals for the next 5 h, and finally after 24 h. Results were normalized to the baseline withdrawal thresholds of each mouse.
# [8] = test system: NK1R-positive lamina I neurons; assay: Cell-attached patch clamp of SP-induced excitation in rat spinal cord slices; assay type: cell-based; settings: 100 nM AP preincubation, washed; SP 1 μM, 2 min
# Procedure: The firing time was determined as the duration of the response to last action potential.
molecule,measurement,setting,value
Cl.N [NH4Cl],Effect of inhibitor on cellular fluorescence of DIPMA-CO nanoparticles,[1],suppressed fluorescence
CN1CC[C@]23c4c5ccc(O)c4O[C@H]2[C@@H](O)C=C[C@H]3[C@H]1C5 [morphine],Duration of full reversal of hyperalgesia,[2]; morphine,2 h
same,Time after which the effect was absent,[2]; morphine,2.5 h
same,Effect on mechanical hyperalgesia after 0.5 h,"[3]; 3 mg/kg, i.p.",fully reversed the mechanical hyperalgesia
same,Time at which the effect waned to baseline,"[3]; 3 mg/kg, i.p.",3 h
O=C(N/N=C/c1cc(O)c(O)cc1O)c1cc2ccccc2cc1O [Dyngo4a],Effect of inhibitor on cellular fluorescence of DIPMA-CO nanoparticles,[1],inhibited the accumulation of Coumarin 153 cellular fluorescence
"CGRP8-37: a membrane-impermeant CLR antagonist (VTHRLAGLLSRSGGVVKNNFVPTNVGSKAF; ends and bridges not checked; UniProt P06881 90-119, looked up, fragment)",Reversal of mechanical hyperalgesia,[4],not
"C[C@@H](O[C@H]1OCCN(Cc2nc(=O)[nH][nH]2)[C@H]1c1ccc(F)cc1)c1cc(C(F)(F)F)cc(C(F)(F)F)c1 [aprepitant, 5-([(2R,3S)-2-((R)-1-[3,5-Bis(trifluoromethyl)phenyl]ethoxy)-3-(4-fluorophenyl)morpholino]methyl)-1H-1,2,4-triazol-3(2H)-one]",Duration of effect,[5],2 h
same,"Improvement in pressure, Randall-Selitto",[5],20 g
same,Pain recovery,[5],~25%
same,Effect on withdrawal threshold,"[2]; 10 μl i.t., 100 nM, 10 days after SNS",did not modify withdrawal threshold
same,"Maximum inhibition of hyperalgesia, after 1 h","[2]; 10 μl i.t., 300 nM",40±2%
same,Time of return to baseline,"[2]; i.t., 300 nM",2.5 h
same,Inhibition of hyperalgesia after 1 h,"[2]; i.t., 1 μM",75±4%
same,Time of return to baseline,"[2]; i.t., 1 μM",3 h
same,Effect on C-reflex,[6],"decreased the C-reflex, but only at 30 min"
same,Effect on wind-up,[6],did not affect wind-up
same,Inhibition of CFA hyperalgesia at 1.5 h,[3]; 100 nM AP,30±6%
same,Inhibition of CFA hyperalgesia at 1.5 h,[3]; 300 nM AP,47±3%
same,Duration of reversal of hyperalgesia,"[3]; free AP 100 or 300 nM, DIPMA-AP 100 nM AP, i.t.",2 to 3 h
same,Inhibition of capsaicin-evoked allodynia at 1 h,"[7]; 5 μl i.t., 100 nM AP, 30 min before capsaicin",16±4%
same,Time at which the effect is lost / not detected,[7]; 100 nM AP,3 h
same,Time at which the effect is lost / not detected,"[7]; 100 nM AP, listed as AP",1.5 h
same,Analgesia on the first hour,[7]; single i.t. dose 30 minutes prior to capsaicin (Example 9),30%
same,Effect on SP-induced firing of spinal neurons,[8],"did not affect the onset, rate or duration of SP-induced firing"
"CGRP8-37-Chol: cholestanol conjugate of CGRP8-37 (VTHRLAGLLSRSGGVVKNNFVPTNVGSKAF; ends and bridges not checked; also: cholestanol conjugate; UniProt P06881 90-119, looked up, fragment)",Reversal of mechanical hyperalgesia,[4],~20%
O=C1NC(=NS(=O)(=O)c2cccc3ccccc23)S/C1=C\c1ccc(Br)cc1 [PitStop2],Effect of inhibitor on cellular fluorescence of DIPMA-CO nanoparticles,[1],inhibited the accumulation of Coumarin 153 cellular fluorescence
CO/C1=C\C(C)=C\[C@@H](C)[C@@H](O)[C@@H](C)C/C(C)=C/C=C/[C@H](OC)[C@@H]([C@@H](C)[C@@H](O)[C@H](C)[C@@]2(O)C[C@@H](O)[C@H](C)[C@@H](C(C)C)O2)OC1=O [Bafilomycin A1],Effect of inhibitor on cellular fluorescence of DIPMA-CO nanoparticles,[1],suppressed fluorescence
same,Effect of inhibitor on cellular fluorescence of DIPMA-CO nanoparticles,[1]; listed as Bafilomycin A,inhibited the accumulation of Coumarin 153 cellular fluorescence
